Data from publication PMC9586283 (Proceedings of the National Academy of Sciences of the …, 2022).

Key:
[1] = tested on: end-blocked, mispair-containing DNA; format: binding; conditions: 20 nM Msh2-Msh6, 40 nM Mlh1-Pms1, 250 μM ATP, 25 °C, 20 μL/min, 236-bp DNA, Biacore T100
wild-type Mlh1-Pms1 = test: Mlh1-Pms1 endonuclease assay; format: biochemical, S. cerevisiae; conditions: 7.5 nM PCNA, 30 nM RFC-Δ1N, 35 nM Mlh1-Pms1, 1 mM MnSO4, 20 mM Tris (pH 7.5), 0.5 mM ATP, 100 ng supercoiled pRS425, 30 °C, 30 min, agarose gel
supercoiled DNA plasmid = format: biochemical
3′ AflIII CC substrate = test: Reconstituted Exo1- and Mlh1-Pms1-dependent MMR reaction in vitro; format: biochemical
Pms1 = test: Interaction of mutant Mlh1 with Pms1 during protein purification; format: binding, S. cerevisiae

“Mlh1-Pms1: wild-type S. cerevisiae Mlh1-Pms1 endonuclease heterodimer” was tested, and the “recruitment by Msh2-Msh6, increase in response units” value [1] was “robust increase in the response units”.
“KAKRQENKLVRIDASQAKITSFLSS [wild-type peptide]” was tested, and the Mlh1-Pms1 endonuclease activity (wild-type Mlh1-Pms1; peptide-to-heterodimer molar ratio of 250:1) was ~70% and the Mlh1-Pms1 endonuclease activity (wild-type Mlh1-Pms1; peptide-to-heterodimer molar ratio of 1,000:1) was ~50%.
In the case of Mlh1(RADA)-Pms1, the “nicking activity relative to wild-type Mlh1-Pms1” value (supercoiled DNA plasmid; % of the nicking activity of the wild-type Mlh1-Pms1 protein, RFC-Δ1N and PCNA, ATP, 35 nM Mlh1-Pms1, 30 °C, 30 min, in triplicate) is reported as ~10%, the “endonuclease activity (in words)” value (supercoiled DNA plasmid; in vitro, with PCNA, RFC-Δ1N and ATP) is reported as “defective for MMR and endonuclease activity in vitro” and the “MMR in vitro (in words)” value (3′ AflIII CC substrate) is reported as “defective for MMR”. For the same substance, the “recruitment by Msh2-Msh6, increase in response units” value [1] was “robust increase in the response units” and the “ability to interact with Pms1” value (Pms1) was “did not observe any defects in the ability of Mlh1(RADA) to interact with Pms1”.
